Assays:
Type in all cases: in vivo
[1] = test system: crabgrass, large (large crabgrass, Digitaria sanguinalis); experiment: Test A pre-/postemergence: crabgrass, large; conditions: for Crabgrass, Large plant response rating: Postemergence; for Plant response rating, Crabgrass, Large: Preemergence
Summary of the method: (§1)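 Whole-plant greenhouse assay in loam/sand. Preemergence directed soil spray plus simultaneous postemergence spray (one- to two-leaf stage, 2–10 cm). Rated visually ~10 days later, 0 = no effect, 100 = complete control.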

[2] = test system: barnyardgrass (Echinochloa crus-galli); experiment: Test C flooded paddy test: barnyardgrass; conditions: scale 0 to 100 (0 no effect, 100 complete control)
Summary of the method: (§2)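 Greenhouse plants treated at the 2-leaf stage by dosing the flood water (3 cm depth, maintained) were compared with controls after 13 to 15 days and rated 0 to 100, where 100 means complete control; a dash marks no test result.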

[3] = test system: morningglory (Ipomoea spp.); experiment: Test A pre-/postemergence: morningglory; conditions: for Morningglory plant response rating: Postemergence; for Plant response rating, Morningglory: Preemergence
Summary of the method: as §1

[4] = test system: wheat (Triticum aestivum); experiment: Test A pre-/postemergence: wheat; conditions: for Wheat plant response rating: Postemergence; for Plant response rating, Wheat: Preemergence
Summary of the method: as §1

corn (Zea mays) = experiment: Test A pre-/postemergence: corn; conditions: for Corn plant response rating: Postemergence; for Plant response rating, Corn: Preemergence
Summary of the method: as §1

[5] = test system: foxtail, giant (giant foxtail, Setaria faberii); experiment: Test A pre-/postemergence: foxtail, giant; conditions: for Foxtail, Giant plant response rating: Postemergence; for Plant response rating, Foxtail, Giant: Preemergence
Summary of the method: as §1

[6] = test system: ducksalad (Heteranthera limosa); experiment: Test C flooded paddy test: ducksalad; conditions: scale 0 to 100 (0 no effect, 100 complete control)
Summary of the method: as §2

[7] = test system: barnyardgrass (Echinochloa crus-galli); experiment: Test A pre-/postemergence: barnyardgrass; conditions: for Barnyardgrass plant response rating: Postemergence; for Plant response rating, Barnyardgrass: Preemergence
Summary of the method: as §1

rice (Oryza sativa) = experiment: Test C flooded paddy test: rice; conditions: scale 0 to 100 (0 no effect, 100 complete control)
Summary of the method: as §2

[8] = test system: velvetleaf (Abutilon theophrasti); experiment: Test A pre-/postemergence: velvetleaf; conditions: for Velvetleaf plant response rating: Postemergence; for Plant response rating, Velvetleaf: Preemergence
Summary of the method: as §1

[9] = test system: sedge, umbrella (small-flower umbrella sedge, Cyperus difformis); experiment: Test C flooded paddy test: sedge, umbrella; conditions: scale 0 to 100 (0 no effect, 100 complete control)
Summary of the method: as §2

[10] = test system: pigweed (Amaranthus retroflexus); experiment: Test A pre-/postemergence: pigweed; conditions: for Pigweed plant response rating: Postemergence; for Plant response rating, Pigweed: Preemergence
Summary of the method: as §1

[11] = 125 g ai/ha, 0 to 100 scale, 0 is no effect, 100 is complete control
[12] = 500 g ai/ha, visual rating on 0 to 100 scale (0 no effect, 100 complete control), approximately ten days
[13] = 125 g ai/ha, 0 to 100 scale (0 no effect, 100 complete control)
[14] = 500 g ai/ha, 0 to 100 scale, 0 is no effect, 100 is complete control
[15] = Flood (flooded paddy test), 62 g ai/ha, visual rating after 13 to 15 days
[16] = Flood (flooded paddy test), 125 g ai/ha, visual rating after 13 to 15 days
[17] = Flood (flooded paddy test), 250 g ai/ha, visual rating after 13 to 15 days

## Cc1nn(-c2cccc(C(F)(F)F)c2)nc1Oc1ccnc(C(F)(F)F)c1 [Compound 40]
[1]; [11]
  Crabgrass, Large plant response rating: 80
[1]; [12]
  Crabgrass, Large plant response rating: 90
[1]; [13]
  Plant response rating, Crabgrass, Large: 100
[1]; [14]
  Plant response rating, Crabgrass, Large: 100
[2]; [15]
  Plant response rating, Barnyardgrass: 20
[2]; [16]
  Plant response rating, Barnyardgrass: 30
[2]; [17]
  Plant response rating, Barnyardgrass: 30
[2]; Flood, 31 g ai/ha
  Plant response rating, Barnyardgrass: 20
[3]; [11]
  Morningglory plant response rating: 70
[3]; [12]
  Morningglory plant response rating: 100
[3]; [13]
  Plant response rating, Morningglory: 0
[3]; [14]
  Plant response rating, Morningglory: 10
[4]; [11]
  Wheat plant response rating: 20
[4]; [12]
  Wheat plant response rating: 30
[4]; [13]
  Plant response rating, Wheat: 0
[4]; [14]
  Plant response rating, Wheat: 20
Corn (Zea mays); [11]
  Corn plant response rating: 10
Corn (Zea mays); [12]
  Corn plant response rating: 30
Corn (Zea mays); [13]
  Plant response rating, Corn: 0
Corn (Zea mays); [14]
  Plant response rating, Corn: 10
[5]; [11]
  Foxtail, Giant plant response rating: 60
[5]; [12]
  Foxtail, Giant plant response rating: 90
[5]; [13]
  Plant response rating, Foxtail, Giant: 100
[5]; [14]
  Plant response rating, Foxtail, Giant: 100
[6]; [15]
  Plant response rating, Ducksalad: 30
[6]; [16]
  Plant response rating, Ducksalad: 60
[6]; [17]
  Plant response rating, Ducksalad: 70
[6]; Flood, 31 g ai/ha
  Plant response rating, Ducksalad: 30
[7]; [11]
  Barnyardgrass plant response rating: 30
[7]; [12]
  Barnyardgrass plant response rating: 40
[7]; [13]
  Plant response rating, Barnyardgrass: 30
[7]; [14]
  Plant response rating, Barnyardgrass: 80
Rice (Oryza sativa); [15]
  Plant response rating, Rice: 10
Rice (Oryza sativa); [16]
  Plant response rating, Rice: 20
Rice (Oryza sativa); [17]
  Plant response rating, Rice: 25
Rice (Oryza sativa); Flood, 31 g ai/ha
  Plant response rating, Rice: 0
[8]; [11]
  Velvetleaf plant response rating: 70
[8]; [12]
  Velvetleaf plant response rating: 100
[8]; [13]
  Plant response rating, Velvetleaf: 10
[8]; [14]
  Plant response rating, Velvetleaf: 20
[9]; [15]
  Plant response rating, Sedge, Umbrella: 75
[9]; [16]
  Plant response rating, Sedge, Umbrella: 80
[9]; [17]
  Plant response rating, Sedge, Umbrella: 80
[9]; Flood, 31 g ai/ha
  Plant response rating, Sedge, Umbrella: 70
[10]; [11]
  Pigweed plant response rating: 100
[10]; [12]
  Pigweed plant response rating: 100
[10]; [13]
  Plant response rating, Pigweed: 90
[10]; [14]
  Plant response rating, Pigweed: 100
